The record followed here is PubChem BioAssay AID258 (DTP/NCI, 2004).

The assay relates to CD2F1 mice, L1210 leukemia sc, survival T/C. Briefly: NCI In Vivo Anticancer Drug Screen. Data for tumor model L1210 Leukemia (subcutaneous) in CD2F1 (CDF1) mice. The settings on record: endpoint: median survival time, higher = longer survival. How it is done:
The antitumor activity of compounds was measured in mice bearing transplantable tumors. Survival or tumor size were measured and the results are expressed as the measurement made in the treated group (T) divided by the measurement made in the vehicle treated control group (C). The tumor model used in this assay is L1210 Leukemia (subcutaneous) in CD2F1 (CDF1) mice

[1] abbreviates: dose: 25.0 mg/kg/injection, schedule: Q01DX009 (ip), vehicle: saline.
Setting [2] is: dose: 100.0 mg/kg/injection, schedule: Q01DX009 (ip), vehicle: saline.
Setting [3] is: dose: 200.0 mg/kg/injection, schedule: Q01DX009 (ip), vehicle: saline.
[4] abbreviates: dose: 65.0 mg/kg/injection, schedule: Q01DX Z (sc), vehicle: methylcellulose (MC).

The structures appear in SMILES notation. “And” between values parts separate entries of the source, which are not always exact repeats. Equal values may be shown once. Toxic doses and inconclusive results are not listed.

`CN(CCN(C)C(=O)CCOS(C)(=O)=O)C(=O)CCOS(C)(=O)=O`: the T/C was 106 % of control and 107 % of control under setting [1]; 123 % of control (dose: 50.0 mg/kg/injection, schedule: Q01DX009 (ip), vehicle: saline); 171 % of control under setting [2]; 103 % of control and 94 % of control under setting [3].
For the molecule `N[C@@H](Cc1ccc(N(CCCl)CCCl)cc1)C(=O)O`, the T/C by setting is: (dose: 0.31 mg/kg/injection, schedule: Q01DX009 (ip), vehicle: saline) 96 % of control; (dose: 0.31 mg/kg/injection, schedule: Q01DX009 (sc), vehicle: saline) 100 % of control; (dose: 0.62 mg/kg/injection, schedule: Q01DX009 (ip), vehicle: saline) 104 % of control; (dose: 0.62 mg/kg/injection, schedule: Q01DX009 (sc), vehicle: saline) 104 % of control; (dose: 0.63 mg/kg/injection, schedule: Q01DX009 (ip), vehicle: saline) 99 % of control; (dose: 1.0 mg/kg/injection, schedule: Q01DX009 (ip), vehicle: suspension in saline) 121 % of control. Besides, the T/C is, setting by setting: (dose: 1.0 mg/kg/injection, schedule: Q01DX009 (sc), vehicle: saline with Tween-80) 105 % of control and 108 % of control; (dose: 1.25 mg/kg/injection, schedule: Q01DX009 (ip), vehicle: saline) 112 % of control and 113 % of control and 121 % of control; (dose: 1.25 mg/kg/injection, schedule: Q01DX009 (sc), vehicle: saline) 115 % of control and 121 % of control; (dose: 2.0 mg/kg/injection, schedule: Q01DX009 (sc), vehicle: saline with Tween-80) 110 % of control and 124 % of control; (dose: 2.5 mg/kg/injection, schedule: Q01DX009 (ip), vehicle: saline) 124 % of control; (dose: 3.0 mg/kg/injection, schedule: Q01DX009 (ip), vehicle: saline) 153 % of control. Moreover, the T/C (dose: 3.5 mg/kg/injection, schedule: Q01DX009 (ip), vehicle: saline) was 168 % of control; the T/C (dose: 4.0 mg/kg/injection, schedule: Q01DX009 (ip), vehicle: saline) was 173 % of control; the T/C (dose: 4.0 mg/kg/injection, schedule: Q01DX009 (ip), vehicle: suspension in saline) is 169 % of control; the T/C (dose: 4.0 mg/kg/injection, schedule: Q01DX009 (sc), vehicle: saline with Tween-80) was 163 % of control; the T/C (dose: 4.5 mg/kg/injection, schedule: Q01DX009 (ip), vehicle: saline) was 169 % of control; the T/C (dose: 5.0 mg/kg/injection, schedule: Q01DX009 (sc), vehicle: saline) is 153 % of control and 156 % of control. For the same molecule, the T/C (dose: 5.3 mg/kg/injection, schedule: Q01DX009 (sc), vehicle: saline) is 161 % of control; the T/C (dose: 7.5 mg/kg/injection, schedule: Q01DX009 (sc), vehicle: saline) is 104 % of control; the T/C (dose: 8.0 mg/kg/injection, schedule: Q01DX009 (ip), vehicle: suspension in saline) was 88 % of control; the T/C (dose: 8.0 mg/kg/injection, schedule: Q01DX009 (sc), vehicle: saline with Tween-80) is 168 % of control; the T/C (dose: 10.0 mg/kg/injection, schedule: Q01DX009 (sc), vehicle: saline) was 98 % of control; the T/C (dose: 16.0 mg/kg/injection, schedule: Q01DX009 (sc), vehicle: saline with Tween-80) is 118 % of control and 87 % of control. The T/C (dose: 18.0 mg/kg/injection, schedule: Q01DX009 (sc), vehicle: saline) is 110 % of control; the T/C (dose: 32.0 mg/kg/injection, schedule: Q01DX009 (sc), vehicle: saline with Tween-80) is 107 % of control; the T/C (dose: 64.0 mg/kg/injection, schedule: Q01DX009 (sc), vehicle: saline with Tween-80) is 108 % of control.
For `CCn1cnc2c(SC)ncnc21`, the T/C is, setting by setting: under setting [4], 100 % of control; (dose: 108.0 mg/kg/injection, schedule: Q01DX Z (sc), vehicle: methylcellulose (MC)) 100 % of control; (dose: 180.0 mg/kg/injection, schedule: Q01DX Z (sc), vehicle: methylcellulose (MC)) 100 % of control.
For the molecule `N#CC(c1ccccc1)c1cccc2ccccc12` (centres undefined), the T/C is 109 % of control (dose: 23.0 mg/kg/injection, schedule: Q01DX Z (sc), vehicle: methylcellulose (MC)); 119 % of control (dose: 39.0 mg/kg/injection, schedule: Q01DX Z (sc), vehicle: methylcellulose (MC)); 152 % of control under setting [4].
As for `CCN(CC)CCNc1ccc(C)c2sc3ccccc3c(=O)c12`, the T/C is, setting by setting: under setting [1], 116 % of control; under setting [2], 158 % of control; under setting [3], 87 % of control.
For the molecule `CCN(CC)c1ccc2cc3ccc(=[N+](CC)CC)cc-3oc2c1`, the T/C runs as follows: (dose: 0.5 mg/kg/injection, schedule: Q01DX Z (sc), vehicle: methylcellulose (MC)) 100 % of control; (dose: 1.0 mg/kg/injection, schedule: Q01DX Z (sc), vehicle: methylcellulose (MC)) 100 % of control; (dose: 2.0 mg/kg/injection, schedule: Q01DX Z (sc), vehicle: methylcellulose (MC)) 100 % of control; (dose: 4.0 mg/kg/injection, schedule: Q01DX Z (sc), vehicle: methylcellulose (MC)) 100 % of control; (dose: 8.0 mg/kg/injection, schedule: Q01DX Z (sc), vehicle: methylcellulose (MC)) 100 % of control.
With `CN1c2c(nc(N)[nH]c2=O)NCC1CCNc1ccc(C(=O)NC(CCC(=O)O)C(=O)O)cc1` (centres undefined), the T/C was 150 % of control (dose: 200.0 mg/kg/injection, schedule: Q01DX009 (ip), vehicle: other); 155 % of control (dose: 200.0 mg/kg/injection, schedule: Q01DX Z (ip), vehicle: other); 116 % of control (dose: 200.0 mg/kg/injection, schedule: Q04DX003 (ip), vehicle: other); 155 % of control (dose: 400.0 mg/kg/injection, schedule: Q01DX009 (ip), vehicle: other); 155 % of control and 166 % of control (dose: 400.0 mg/kg/injection, schedule: Q01DX Z (ip), vehicle: other); 111 % of control (dose: 400.0 mg/kg/injection, schedule: Q04DX003 (ip), vehicle: other). Also, the T/C (dose: 1600.0 mg/kg/injection, schedule: Q04DX003 (ip), vehicle: other) was 111 % of control.
In the case of `CC(C)CCNc1ncnc2c1cnn2C`, the T/C is, setting by setting: (dose: 23.0 mg/kg/injection, schedule: Q01DX Z (sc), vehicle: water) 100 % of control; (dose: 39.0 mg/kg/injection, schedule: Q01DX Z (sc), vehicle: water) 100 % of control; (dose: 65.0 mg/kg/injection, schedule: Q01DX Z (sc), vehicle: water) 100 % of control; (dose: 108.0 mg/kg/injection, schedule: Q01DX Z (sc), vehicle: water) 109 % of control; (dose: 180.0 mg/kg/injection, schedule: Q01DX Z (sc), vehicle: water) 100 % of control.
On to `O=C[C@@H](CO)O[C@H](C=O)c1c[nH]c(=O)[nH]c1=O`, for which the T/C is 106 % of control (dose: 54.0 mg/kg/injection, schedule: Q04DX003 (ip), vehicle: saline) and 123 % of control (dose: 90.0 mg/kg/injection, schedule: Q04DX003 (ip), vehicle: saline).
